Test results reported in patent US12605371B2, “Combination therapy for cancer” (The Board of Trustees of the Leland Stanford Junior …, priority 2020, dated 2026).
“Also recorded” adds a separate entry of the source.

Tests used:
B16 cells [1] = test: Apoptosis assay (camptothecin, Annexin V), B16 cells; format: cell-based, mouse; details: 10 nM, 20 μM camptothecin, 4 hr
Method: Apoptosis assay: 1×10^5 B16 cells were cultured in DMEM without serum overnight before addition of 20 μM camptothecin (Abcam, Burlingame, CA) in the presence of BSA or OPN fragments (10 nM). Cells were then incubated for 4 hr before addition of 200 μl of binding buffer. The plate was centrifuged at 400 g for 5 min and supernatant discarded. Annexin V FITC stain (Cayman chemicals, Ann Arbor, MI) was added to the cells and incubated at RT for 10 min in the dark. Cells were centrifuged as described above and 100 μl of binding buffer was added to each cell and fluorescence intensity measured at 485/535 nm (excitation/emission). Apoptotic index was calculated by dividing the camptothecin-treated cells with untreated cells.

B16 cells [2] = test: Cell migration assay (transwell), B16 cells; format: cell-based, mouse; details: 10 nM, 24 hr
Method: Cell migration assay: 10^5 B16 cells were placed in the upper chamber of a 6.5 mm transwell with a pore size of 8.0 μm (Sigma, XX). Cells were allowed to settle before the lower chamber was filled with BSA or various OPN fragments (10 nM) in presence of 0.2 mM MnCl2 (Sigma, St Louis, MO) and incubated at 37° C. for 24 hr. Cells that migrated to the lower chamber were centrifuged and resuspended into 90 ul of 1×HBSS (Gibco Life Technologies, Langley, OK) with 10 μl of CCK-8 staining solution (Dojindo Molecular Technologies Inc., Rockville, MD). Cells were incubated for 2 hr before measuring absorbance at 450 nm.

B16 cells [3] = test: Cell adhesion assay, B16 cells; format: cell-based, mouse; details: wells coated at 20 nM
Method: Cell adhesion assay: Wells in 96-well plate was coated with either BSA or different OPN fragments at a concentration of 20 nM in coating buffer (Gibco Life Technologies, Langley, OK) and incubated at 4° C. overnight. The plate was then washed thrice with PBS before blocking with 3% BSA for 1 hr. The cells were washed thrice with 1×HBSS containing 0.2 mM MnCl2. 2×10^6 B16 or RAW cells were added to the wells and incubated at 37° C. for 1 hr. Wells were washed and cells fixed with absolute ethanol for 20 min before staining with 0.1% crystal violet. Cells were washed repeatedly with PBS until no violet color was visible, lysed with 0.5% Triton X-100 and absorbance determined at 570 nm.

RAW cells = test: PGE2 assay, RAW cells; format: cell-based, mouse; details: 10 nM
Method: PGE2 assay: 5×10^5 RAW cells were plated onto 6-well plate in serum free medium with either BSA or various OPN fragments (10 nM). Cells were cultured overnight before collecting the media and determining PGE2 by ELISA (Enzo, Farmingdale, NY).

[4] = system: factor Xa-protease-activated receptor 2 signaling in TAMs; details: in vivo; cited from earlier work
[5] = parenteral; particularly limited small cell lung cancers; cited from earlier work
thrombin = thrombin (Homo sapiens, UniProt P00734); test: Thrombin treatment of E. coli produced GST-OPN and GST-OPNR153A, SDS-PAGE; format: biochemical; details: thrombin 10 nM, time course
Method: FIGS. 1A-1D: B16 tumors grow slower in OPN-KO and OPN-KI than WT mice in the flank model. FIG. 1A. Model of OPN cleavages and its functional modulation by thrombin and carboxypeptidase N or B2. OPN-FL=OPN-full length (SEQ ID NO:5); OPN-R=OPN-Arg (SEQ ID NO:6); OPN-L=OPN-Leu (SEQ ID NO:8). DC=dendritic cells. FIG. 1B. Time course of thrombin treatment (10 nM) of E. coli produced GST-OPN and GST-OPNR153A analyzed by SDS-PAGE. FL=full length, NTF=N-terminal fragment, CTF=C-terminal fragment (SEQ ID NO:7). FIG. 1C. Daily determination of B16 tumor volume grown on WT, OPN-KI and OPN-KO mice. FIG. 1D. B16 tumor weight after sacrifice. All data are shown as mean±SEM. Statistical significance was calculated by one-way ANOVA followed by Tukey's multiple comparison test.
The OPN-KI (OPNR153A) mice, similar to OPN-KO mice, were fertile and healthy before challenge, without any phenotypic changes observable in CBC, liver function and kidney function (FIGS. 9 and 10)

B16 cells [6] = details: in vivo; cited from earlier work
B16 tumors = test: B16 subcutaneous (flank) tumor model, mice fed dabigatran etexilate chow; format: in vivo, mouse
Method: B16 subcutaneous tumor inoculation: B16 cells were grown until confluent and 2×10^6 cells were inoculated subcutaneously into WT, OPN-KI and OPN-KO mice. Mice were monitored daily for tumor growth. Tumor size was measured and volume calculated using the equation (width×width×length)/2. Animals were euthanized using CO2 and blood collected by cardiac puncture and tumors were isolated carefully. Blood was centrifuged at 2500 rpm for 20 min to prepare plasma and stored at −80° C. Tumors were weighed and measured. Part of the tumor was stored in formaldehyde for immunohistochemistry, part of it was frozen and stored at −80° C. for preparation of tumor lysates for OPN ELISAs. […] Animals were monitored daily and sacrificed after 2 weeks.

B16 cells [7] = test: B16 pulmonary metastasis model, mice fed DE chow; format: in vivo, mouse
Method: Animals were monitored daily and sacrificed after 2 weeks. […] B16 metastasis model: 0.5×10^6 B16 cells were injected via tail vein into mice. After sacrifice, the lung was isolated and the number of metastatic nodules on surface was counted on both sides, before analyzing the left lobe for melanin determination. The left lobe of lung from each mouse was incubated in 1N NaOH/10% DMSO for 2 hr at 80° C. before centrifugation at 12,000 rpm for 10 min at room temperature. The absorbance at 470 nm of the supernatant was measured and compared to a standard of synthetic melanin (Sigma, St. Louis, MO). Lung was weighed before the start of process and melanin content was expressed as μg/mg protein determined by protein assay of lung tissue.

[8] = OPN-KI or OPN-KO mice, trend, compared to untreated mice of same genotype
[9] = WT mice, compared to control WT mice, 13 days after inoculation

With “OPN-FL: recombinant full length osteopontin (SEQ ID NO:5) (RGDSVVYGLRSKSKKFRR; OPN-FL)” the “reduction of B16 cell apoptosis compared to BSA” value (from here on “reduction of B16 cell apoptosis”) (B16 cells [1]) was about 3 fold and the “B16 cell migration compared to BSA (in words)” value (B16 cells [2]) was “increased migration”.

For “OPN-L: OPN-R with C-terminal arginine removed by CPN or CPB2 (SEQ ID NO:8) (RGDSVVYGL; OPN-L)”, the “reduction of B16 cell apoptosis” value (B16 cells [1]) was about 3 fold, the “B16 cell adhesion compared to OPN-R (in words)” value (B16 cells [3]) was “reduced adhesion” and the “B16 chemotaxis/migration relative to OPN-FL (in words: significantly increased or not)” value (B16 cells [2]) was “not”.

For “OPN-R: thrombin-cleaved OPN N-terminal fragment ending in Arg (SEQ ID NO:6) (RGDSVVYGLR; OPN-R)”, the “reduction of B16 cell apoptosis” value (B16 cells [1]) was about 3 fold, the “secretion of PGE2 by RAW cells (in words)” value (RAW cells) was “significantly enhanced” and the “B16 cell migration compared to BSA (in words)” value (B16 cells [2]) was “increased migration”.

In the case of `O=C(NC[C@H]1CN(c2ccc(N3CCOCC3=O)cc2)C(=O)O1)c1ccc(Cl)s1` [rivaroxaban], the “antitumor immunity (in words)” value [4] is listed as “promote antitumor immunity”.

For heparin, the “survival of cancer patients (in words)” value [5] is given as “survival benefit”.

With “OPNR153A: mutant OPN with arginine in the thrombin cleavage site mutated to alanine (R153A), expressed in E. coli” the “thrombin cleavage (in words)” value (thrombin) was “resistant to thrombin cleavage”.

In the case of hirudin, the “metastasis of B16 cells (in words)” value (B16 cells [6]) is given as “prevented metastasis”.

With `CCCCCCOC(=O)N=C(N)c1ccc(NCc2nc3cc(C(=O)N(CCC(=O)OCC)c4ccccn4)ccc3n2C)cc1` [DE, dabigatran etexilate] the “effect on B16 local tumor growth, weight and volume (in words)” value (B16 tumors; OPN-KI (and OPN-KO) mice) was “did not further reduce; also recorded: no effect”, the “tumor weight after sacrifice” value (B16 tumors; OPN-KI mice, DE-containing chow, in g) was 0.8±0.9 and the “tumor volume after sacrifice” value (B16 tumors; OPN-KI mice, DE-containing chow, mean±SEM) was 0.73±0.3 cm^3. For the same molecule, the “B16 tumor growth (in words)” value (B16 tumors; WT mice) was “tumor suppression; also recorded: grew slower”, the “tumor volume after sacrifice” value (B16 tumors; WT mice, DE-containing chow from 4 days before B16 inoculation until sacrifice, mean±SEM) was 1.0±0.2 cm^3 and the “tumor weight after sacrifice” value (B16 tumors; WT mice, DE-containing chow, mean±SEM) was 1.0 ± 0.2 g. For the same molecule, the “melanin content of lungs” value (B16 cells [7]; [8]) was “decreased”, the pulmonary metastases (B16 cells [7]; [8]) was “fewer” and the “melanin content of lungs” value (B16 cells [7]; [9]) was “reduced”. The metastatic nodules/lung (B16 cells [7]; [9]) was “fewer”.

In the case of “OPN-CTF: C-terminal OPN fragment after thrombin cleavage (SEQ ID NO:7) (SKSKKFRR; OPN-CTF)”, the “anti-apoptotic effect on B16 cells (in words)” value (B16 cells [1]) is reported as “no anti-apoptotic effect” and the “B16 chemotaxis/migration relative to OPN-FL (in words: significantly increased or not)” value (B16 cells [2]) is reported as “comparable to OPN-FL”.
